Source: patent US10052305B2, “Lipoic acid and derivatives thereof for the treatment of cystinuria” (Buck Institute for Research on Aging, priority 2015, dated 2018)

What was measured:
Assay type in all cases: in vivo
Slc3a1−/− mice [1] = test: Prevention of cystine stone formation in a genetic mouse model of cystinuria, evaluated by micro-computed tomography (μCT)
Source text: A genetic mouse model of cystinuria was used to study the formation of cystine urinary stones. Mice lacking the gene Slc3a1 (Slc3a1^−/−) were fed a diet supplemented with 0.5% (±)-α-lipoic acid and evaluated for the formation of cystine stones using micro-computed tomography (μCT). […] On average, mice treated with lipoic acid developed much smaller cystine stones (mm^3). This experiment was repeated again (Experiment 2) with similar results; none (0 out of 6) of the lipoic acid treated cystinuric mice developed stones while all control, non-treated mice (8 out of 8) had developed urinary stones had developed stones by day 27 of the study.

Slc3a1−/− mice [2] = test: Effect on cystine urinary stone growth tracked by μCT after switch to a lipoic acid diet; details: Slc3a1−/− mice on standard diet, switched on day 54 to diet with 0.5% (±)-α-lipoic acid; before vs after treatment
Source text: To evaluate the effect of lipoic acid on cystine urinary stone growth, stone development was tracked by micro-computed tomography (μCT) in Slc3a1^−/− mice fed a standard diet. On day 54 of the study, the mice were switched onto a diet supplemented with 0.5% (±)-α-lipoic acid.

[3] = Real time food and water intake in metabolic cages; details: Slc3a1−/− mice; 0.5% (±)-α-lipoic acid diet vs standard diet; 3 days after 3 days of acclimation
Method: Real time food and water intake was measured in Slc3a1^−/− mice treated with 0.5% (±)-α-lipoic acid supplemented diet by group housing in metabolic cages. Mice were acclimated to the metabolic cage environment for 3 days and then evaluated for food and water intake for the subsequent 3 days.

light cycle, dark cycle, or total food intake [3]: did not especially alter | light cycle, dark cycle, or total water intake [3]: did not especially alter
SMILES: O=C(O)CCCCC1CCSS1 (racemic) [Lipoic acid, (±)-α-lipoic acid]
mice that developed stones (Slc3a1−/− mice [1]; Experiment 2 (repeat), by day 27 of the study, non-treated mice 8 out of 8): 0 out of 6 | average cystine stone size vs non-treated mice (Slc3a1−/− mice [1]; first experiment (FIG. 2), diet supplemented with 0.5% (±)-α-lipoic acid): much smaller | mice that developed cystine stones (Slc3a1−/− mice [1]; first experiment (FIG. 2), diet supplemented with 0.5% (±)-α-lipoic acid, non-treated mice 7/7): 2 out of 8 | decrease of the rate of stone volume accumulation (mm^3/day) (Slc3a1−/− mice [2]): 90%
